ChEMBL document CHEMBL3046647, “Khayasin and 2S-methylbutanoylproceranolide: Promising candidate insecticides for the control of the coconut leaf beetle, Brontispa longissima” (2011)
In brackets after ≈: the same amount, converted by molar mass.

How the values were obtained:
Assay type in all cases: functional
[1] = tested on: Brontispa longissima; experiment: Insecticidal activity against Brontispa longissima fifth-instar larvae fed on compound pre-treated Cocos nucifera L. leaves assessed as insect mortality at 25 ug/ml measured 72 hr after compound treatment; conditions: in Cocos nucifera
[2] = tested on: Brontispa longissima; experiment: Insecticidal activity against Brontispa longissima fifth-instar larvae fed on compound pre-treated Cocos nucifera L. leaves assessed as insect mortality measured 24 hr after compound treatment; conditions: in Cocos nucifera
[3] = tested on: Spodoptera litura; experiment: Antifeedant activity against Spodoptera litura third-instar larvae fed on compound pre-treated castor-oil plant leaves assessed as antifeedant rate at 1 mg/ml after 24 hr
[4] = tested on: Spodoptera litura; experiment: Insecticidal activity against Spodoptera litura third-instar larvae fed on compound pre-treated Ricinus communis L. leaves assessed as insect mortality at 0.5 mg/ml measured 12 days after compound treatment; conditions: in Ricinus communis
[5] = tested on: Brontispa longissima; experiment: Insecticidal activity against Brontispa longissima fifth-instar larvae fed on compound pre-treated Cocos nucifera L. leaves assessed as insect mortality at 25 ug/ml measured 48 hr after compound treatment; conditions: in Cocos nucifera
[6] = tested on: Spodoptera litura; experiment: Antifeedant activity against Spodoptera litura third-instar larvae fed on compound pre-treated castor-oil plant leaves assessed as antifeedant rate at 0.5 mg/ml after 48 hr
[7] = tested on: Spodoptera litura; experiment: Antifeedant activity against Spodoptera litura third-instar larvae fed on compound pre-treated castor-oil plant leaves assessed as antifeedant rate at 1 mg/ml after 48 hr
[8] = tested on: Brontispa longissima; experiment: Insecticidal activity against Brontispa longissima fifth-instar larvae fed on compound pre-treated Cocos nucifera L. leaves assessed as insect mortality at 50 ug/ml measured 48 hr after compound treatment; conditions: in Cocos nucifera
[9] = tested on: Brontispa longissima; experiment: Insecticidal activity against Brontispa longissima second-instar larvae fed on compound pre-treated Cocos nucifera L. leaves assessed as insect mortality at 50 ug/ml measured 12 hr after compound treatment; conditions: in Cocos nucifera
[10] = tested on: Brontispa longissima; experiment: Insecticidal activity against Brontispa longissima third-instar larvae fed on compound pre-treated Cocos nucifera L. leaves assessed as insect mortality at 50 ug/ml measured 24 hr after compound treatment; conditions: in Cocos nucifera
[11] = tested on: Brontispa longissima; experiment: Insecticidal activity against Brontispa longissima fifth-instar larvae fed on compound pre-treated Cocos nucifera L. leaves assessed as insect mortality at 50 ug/ml measured 72 hr after compound treatment; conditions: in Cocos nucifera
[12] = tested on: Brontispa longissima; experiment: Insecticidal activity against Brontispa longissima second-instar larvae fed on compound pre-treated Cocos nucifera L. leaves assessed as insect mortality at 50 ug/ml measured 72 hr after compound treatment; conditions: in Cocos nucifera
[13] = tested on: Brontispa longissima; experiment: Insecticidal activity against Brontispa longissima third-instar larvae fed on compound pre-treated Cocos nucifera L. leaves assessed as insect mortality at 50 ug/ml measured 12 hr after compound treatment; conditions: in Cocos nucifera
[14] = tested on: Brontispa longissima; experiment: Insecticidal activity against Brontispa longissima fifth-instar larvae fed on compound pre-treated Cocos nucifera L. leaves assessed as insect mortality at 25 ug/ml measured 12 hr after compound treatment; conditions: in Cocos nucifera
[15] = tested on: Spodoptera litura; experiment: Insecticidal activity against Spodoptera litura third-instar larvae fed on compound pre-treated Ricinus communis L. leaves assessed as insect mortality at 1 mg/ml measured 12 days after compound treatment; conditions: in Ricinus communis
[16] = tested on: Brontispa longissima; experiment: Insecticidal activity against Brontispa longissima fourth-instar larvae fed on compound pre-treated Cocos nucifera L. leaves assessed as insect mortality at 50 ug/ml measured 24 hr after compound treatment; conditions: in Cocos nucifera
[17] = tested on: Brontispa longissima; experiment: Insecticidal activity against Brontispa longissima second-instar larvae fed on compound pre-treated Cocos nucifera L. leaves assessed as insect mortality at 50 ug/ml measured 24 hr after compound treatment; conditions: in Cocos nucifera
[18] = tested on: Brontispa longissima; experiment: Insecticidal activity against Brontispa longissima second-instar larvae fed on compound pre-treated Cocos nucifera L. leaves assessed as insect mortality at 50 ug/ml measured 48 hr after compound treatment; conditions: in Cocos nucifera
[19] = tested on: Brontispa longissima; experiment: Insecticidal activity against Brontispa longissima fourth-instar larvae fed on compound pre-treated Cocos nucifera L. leaves assessed as insect mortality at 50 ug/ml measured 12 hr after compound treatment; conditions: in Cocos nucifera
[20] = tested on: Spodoptera litura; experiment: Antifeedant activity against Spodoptera litura third-instar larvae fed on compound pre-treated castor-oil plant leaves assessed as antifeedant rate at 0.5 mg/ml after 24 hr
[21] = tested on: Brontispa longissima; experiment: Insecticidal activity against Brontispa longissima third-instar larvae fed on compound pre-treated Cocos nucifera L. leaves assessed as insect mortality at 50 ug/ml measured 48 hr after compound treatment; conditions: in Cocos nucifera
[22] = tested on: Brontispa longissima; experiment: Insecticidal activity against Brontispa longissima fifth-instar larvae fed on compound pre-treated Cocos nucifera L. leaves assessed as insect mortality measured 48 hr after compound treatment; conditions: in Cocos nucifera
[23] = tested on: Brontispa longissima; experiment: Insecticidal activity against Brontispa longissima fourth-instar larvae fed on compound pre-treated Cocos nucifera L. leaves assessed as insect mortality at 50 ug/ml measured 72 hr after compound treatment; conditions: in Cocos nucifera
[24] = tested on: Brontispa longissima; experiment: Insecticidal activity against Brontispa longissima third-instar larvae fed on compound pre-treated Cocos nucifera L. leaves assessed as insect mortality at 50 ug/ml measured 72 hr after compound treatment; conditions: in Cocos nucifera
[25] = tested on: Brontispa longissima; experiment: Insecticidal activity against Brontispa longissima fifth-instar larvae fed on compound pre-treated Cocos nucifera L. leaves assessed as insect mortality at 25 ug/ml measured 24 hr after compound treatment; conditions: in Cocos nucifera
[26] = tested on: Brontispa longissima; experiment: Insecticidal activity against Brontispa longissima fifth-instar larvae fed on compound pre-treated Cocos nucifera L. leaves assessed as insect mortality at 50 ug/ml measured 12 hr after compound treatment; conditions: in Cocos nucifera
[27] = tested on: Brontispa longissima; experiment: Insecticidal activity against Brontispa longissima fifth-instar larvae fed on compound pre-treated Cocos nucifera L. leaves assessed as insect mortality at 50 ug/ml measured 24 hr after compound treatment; conditions: in Cocos nucifera
[28] = tested on: Brontispa longissima; experiment: Insecticidal activity against Brontispa longissima fourth-instar larvae fed on compound pre-treated Cocos nucifera L. leaves assessed as insect mortality at 50 ug/ml measured 48 hr after compound treatment; conditions: in Cocos nucifera
[29] = tested on: Brontispa longissima; experiment: Insecticidal activity against Brontispa longissima fifth-instar larvae fed on compound pre-treated Cocos nucifera L. leaves assessed as insect mortality at 10 ug/ml measured 48 hr after compound treatment; conditions: in Cocos nucifera
[30] = tested on: Brontispa longissima; experiment: Insecticidal activity against Brontispa longissima fifth-instar larvae fed on compound pre-treated Cocos nucifera L. leaves assessed as insect mortality at 10 ug/ml measured 12 hr after compound treatment; conditions: in Cocos nucifera
[31] = tested on: Brontispa longissima; experiment: Insecticidal activity against Brontispa longissima fifth-instar larvae fed on compound pre-treated Cocos nucifera L. leaves assessed as insect mortality at 10 ug/ml measured 24 hr after compound treatment; conditions: in Cocos nucifera
[32] = tested on: Brontispa longissima; experiment: Insecticidal activity against Brontispa longissima fifth-instar larvae fed on compound pre-treated Cocos nucifera L. leaves assessed as insect mortality at 10 ug/ml measured 72 hr after compound treatment; conditions: in Cocos nucifera
[33] = tested on: Brontispa longissima; experiment: Insecticidal activity against Brontispa longissima fifth-instar larvae fed on compound pre-treated Cocos nucifera L. leaves assessed as insect mortality at 1 ug/ml measured 24 hr after compound treatment; conditions: in Cocos nucifera
[34] = tested on: Brontispa longissima; experiment: Insecticidal activity against Brontispa longissima fifth-instar larvae fed on compound pre-treated Cocos nucifera L. leaves assessed as insect mortality at 1 ug/ml measured 12 hr after compound treatment; conditions: in Cocos nucifera
[35] = tested on: Brontispa longissima; experiment: Insecticidal activity against Brontispa longissima fifth-instar larvae fed on compound pre-treated Cocos nucifera L. leaves assessed as insect mortality at 1 ug/ml measured 72 hr after compound treatment; conditions: in Cocos nucifera
[36] = tested on: Brontispa longissima; experiment: Insecticidal activity against Brontispa longissima fifth-instar larvae fed on compound pre-treated Cocos nucifera L. leaves assessed as insect mortality at 1 ug/ml measured 48 hr after compound treatment; conditions: in Cocos nucifera
[37] = tested on: Brontispa longissima; experiment: Insecticidal activity against Brontispa longissima fifth-instar larvae fed on compound pre-treated Cocos nucifera L. leaves assessed as insect mortality at 5 ug/ml measured 24 hr after compound treatment; conditions: in Cocos nucifera
[38] = tested on: Brontispa longissima; experiment: Insecticidal activity against Brontispa longissima fifth-instar larvae fed on compound pre-treated Cocos nucifera L. leaves assessed as insect mortality at 5 ug/ml measured 12 hr after compound treatment; conditions: in Cocos nucifera
[39] = tested on: Brontispa longissima; experiment: Insecticidal activity against Brontispa longissima fifth-instar larvae fed on compound pre-treated Cocos nucifera L. leaves assessed as insect mortality at 5 ug/ml measured 72 hr after compound treatment; conditions: in Cocos nucifera
[40] = tested on: Brontispa longissima; experiment: Insecticidal activity against Brontispa longissima fifth-instar larvae fed on compound pre-treated Cocos nucifera L. leaves assessed as insect mortality at 5 ug/ml measured 48 hr after compound treatment; conditions: in Cocos nucifera

Structure (SMILES)	LC50 [2] [mg/L]	Activity [3] [%]	Activity [7] [%]	mortality at 50 µg/mL [8] [%]	mortality at 50 µg/mL [9] [%]	mortality at 50 µg/mL [10] [%]	mortality at 50 µg/mL [11] [%]	mortality at 50 µg/mL [12] [%]	mortality at 50 µg/mL [13] [%]	mortality at 1000 µg/mL [15] [%]	mortality at 50 µg/mL [16] [%]	mortality at 50 µg/mL [17] [%]	mortality at 50 µg/mL [18] [%]	mortality at 50 µg/mL [19] [%]	mortality at 50 µg/mL [21] [%]	LC50 [22] [mg/L]	mortality at 50 µg/mL [23] [%]	mortality at 50 µg/mL [24] [%]	mortality at 50 µg/mL [26] [%]	mortality at 50 µg/mL [27] [%]	further results
CC[C@H](C)C(=O)O[C@@H]1[C@H]2CC3=C4CC(=O)O[C@@H](c5ccoc5)[C@]4(C)CC[C@@H]3[C@@](C)(C2=O)[C@@H](CC(=O)OC)C1(C)C [2'S-METHYLBUTANOYLPROCERANOLIDE]	10.6 (≈ 19.1 µM)	48.4	53	96.7	3.33	7.14	100	23.3	3.57	50	0	6.67	16.7	0	7.14	4.03 (≈ 7.27 µM)	0	14.3	96.7	96.7	mortality at 25 µg/mL [1]: 86.7%; mortality at 500 µg/mL [4]: 24.1%; mortality at 25 µg/mL [5]: 83.3%; Activity [6]: 41.7%; mortality at 25 µg/mL [14]: 76.7%; Activity [20]: 33.9%; mortality at 25 µg/mL [25]: 80%; mortality at 50 µg/mL [28]: 0%
C/C=C(\C)C(=O)O[C@H]1C[C@@H](OC(C)=O)[C@@]2(C(=O)OC)CO[C@H]3[C@@H](O)[C@@](C)([C@]45O[C@@]4(C)[C@@H]4C[C@H]5O[C@@H]5OC=C[C@@]54O)[C@H]4[C@]1(CO[C@]4(O)C(=O)OC)[C@@H]32 [AZADIRACHTIN A]				10			10												3.33	10	mortality at 10 µg/mL [29]: 56.7%; mortality at 10 µg/mL [30]: 20%; mortality at 10 µg/mL [31]: 46.7%; mortality at 10 µg/mL [32]: 63.3%
CCC(C)C(=O)OC1[C@@H]2CC3=C4CC(=O)O[C@@H](c5ccoc5)[C@]4(C)CCC3[C@@](C)(C2=O)[C@@H](CC(=O)OC)C1(C)C (some centres not stated) [KHAYASIN]	7.28 (≈ 13.1 µM)	48.4	53	100	100	100	100	100	100	50	100	100	100	100	100	3.39 (≈ 6.11 µM)	100	100	96.7	100	mortality at 500 µg/mL [4]: 24.1%; mortality at 1 µg/mL [33]: 20%; mortality at 1 µg/mL [34]: 23.3%; Activity [6]: 41.7%; mortality at 1 µg/mL [35]: 26.7%; mortality at 10 µg/mL [29]: 79.3%; mortality at 10 µg/mL [30]: 71.8%; Activity [20]: 33.9%; mortality at 10 µg/mL [31]: 79.3%; mortality at 1 µg/mL [36]: 23.3%; mortality at 10 µg/mL [32]: 86.3%; mortality at 50 µg/mL [28]: 100%
C=C(C)[C@H]1Cc2c(ccc3c2O[C@@H]2COc4cc(OC)c(OC)cc4[C@@H]2C3=O)O1 [ROTENONE]	5.32 (≈ 13.5 µM)			96.7			100									1.61 (≈ 4.08 µM)			86.7	86.7	mortality at 5 µg/mL [37]: 66.7%; mortality at 5 µg/mL [38]: 60%; mortality at 10 µg/mL [29]: 90%; mortality at 10 µg/mL [30]: 80%; mortality at 10 µg/mL [31]: 90%; mortality at 5 µg/mL [39]: 76.7%; mortality at 5 µg/mL [40]: 73.3%; mortality at 10 µg/mL [32]: 90%
CC(=O)O[C@@H]1C[C@H](O)[C@@]23CO[C@@H](O)[C@]1(C)[C@@H]2C[C@@H](O)[C@]1(C)[C@@H]3C(=O)[C@H](OC(C)=O)[C@@]2(C)[C@H](c3ccoc3)C[C@H]3O[C@]321 [TOOSENDANIN]		87.1	90.6		96.7	63.3		100	53.3	100	60	100	100	53.3	73.3		73.3	83.3			mortality at 50 µg/mL [28]: 66.7%
